The source of these data is US12304912B2, “Fused bicyclic RAF inhibitors and methods for use thereof” (Jazz Pharmaceuticals Ireland Limited, priority 2020, dated 2025).

The structures appear in SMILES notation. Bounds are passed on as bounds.

Data set [1] can be described thus: Microsomal stability assay, human liver microsomes (HLM). In kind it is in vitro ADME. Conditions: 0.5 mg/mL protein, 1 μM substrate. The method, then: (§1) Microsomal Stability Assay
(§2) The stability studies were performed manually using the substrate depletion approach. Test compounds were incubated at 37° C. with cryo-preserved mouse or human liver microsomes (Corning) at a protein concentration of 0.5 mg·mL^−1 and a final substrate concentration of 1 μM. Aliquots were removed from the incubation at defined timepoints and the reaction was terminated by adding to ice-cold organic solvent. Compound concentrations were determined by LC-MS/MS analysis. The natural log of the percentage of compound remaining was plotted against each time point and the slope determined. The half-life (t1/2) and CLint were calculated using Equations 1 and 2, respectively.
(§3) HLM (human liver microsomes) and MLM (mouse liver microsomes) stability assay results are described in Tables 1-2.

The subject of data set [2] is BRAF monomers in A375 cells. Kind of data set: A375 AlphaLISA SureFire pERK1/2 cellular assay (monomer). In kind it is cell-based. The conditions noted are these: Homo sapiens, A-375; A375 cells, 1 hr; read-out: pERK A375 (1 hr) pIC50 (converted). The method, then: (§4) The human HCT-116 colorectal carcinoma cell line (ATCC CCL-247) endogenously expresses the KRAS^G13D mutation, which leads to constitutive activation of the MAP kinase pathway and phosphorylation of ERK. […] Assay read outs took place 2 or 24 hours after dosing with compounds. On the first day, HCT-116 cells were harvested, resuspended in growth medium (McCoys5A with Glutamax (Life Technologies 36600021) and 10% heat-inactivated fetal bovine serum (Sigma F9665)), and counted. Cells were plated in 100 μl per well in each well of a 96-well culture dish (Sigma CLS3598) to a final density of 30,000 (2 hr read) or 15,000 (24 hr read) cells per well and incubated over night at 37° C. and 5% CO2. On day 2, the growth medium was exchanged for dosing medium (McCoys5A with Glutamax (Life Technologies 36600021) and 1% heat-inactivated fetal bovine serum (Sigma F9665)) and the cells were dosed with compounds to produce a 10-point dose response, where the top concentration was 1 μM and subsequent concentrations were at 1/3 log dilution intervals. A matched DMSO control was included. The cells were subsequently incubated for either 2 or 24 hours at 37° C. and 5% CO2. After incubation, media was removed and the cells were incubated with lysis buffer containing phosphatase inhibitors for 15 minutes at room temperature. Cell lysates were transferred to a 12 area 96 well white Optiplate™ (Perkin Elmer 6005569) and incubated with anti-mouse IgG acceptor beads, a biotinylated anti-ERK1/2 rabbit antibody recognizing both phosphorylated and non-phosphorylated ERK1/2, a mouse antibody targeted to the Thr202/Tyr204 epitope and recognizing phosphorylated ERK proteins only, and streptavidin-coated donor beads. The biotinylated antibody binds to the streptavidin-coated donor beads and the phopsho-ERK1/2 antibody binds to the acceptor beads. Plates were read on an EnVision reader (Perkin Elmer) and excitation of the beads at 680 nm with a laser induced the release of singlet oxygen molecules from the donor beads that trigger energy transfer to the acceptor beads in close proximity, producing a signal that can be measured at […]. Both antibodies bound to phosphorylated ERK proteins, bringing the donor and acceptor beads into close proximity. All data were analyzed using the Dotmatics or GraphPad Prism software packages. Inhibition of ERK phosphorylation was assessed by determination of the absolute IC50 value, which is defined as the concentration of compound required to decrease the level of phosphorylated ERK proteins by 50% when compared to DMSO control.
A375 AlphaLISA SureFire pERK1/2 Cellular Assay (Monomer)
The human A375 melanoma cell line (ATCC CRL-1619) endogenously expresses the BRAF^V600E mutation, which leads to constitutive activation of the MAP kinase pathway and phosphorylation of ERK. In BRAF^V600E mutant tumours, BRAF signals as a monomer to activate ERK. To determine whether compounds can inhibit BRAF monomers in A375 cells, they were tested using AlphaLISA® SureFire® technology (Perkin Elmer p-ERK1/2 p-T202/Y204 assay kit ALSU-PERK-A10K). The main procedure is essentially the same as described above for HCT-116 cells, with the following adjustments: The A375 cells were cultivated and dosed in Dulbecco's modified Eagle's medium containing 4.5 g/L D-glucose (Sigma D6546), 10% heat-inactivated fetal bovine serum (Sigma F9665), and 1% Sodium-Pyruvate (Sigma S8636), and seeded with a seeding density of 30,000 cells per well. No media exchange was performed before dosing with compounds to produce a 10-point dose response, where the top concentration was 10 μM and subsequent concentrations were at 1/2 log dilution intervals. Subsequently, the cells were incubated for 1 hour at 37° C. and 5% CO2 before lysis.
A general note: In Alpha technology, singlet oxygen from a donor bead excites a nearby acceptor bead.

Data set [3] in a line: Solubility (Sol), medium not stated. In kind it is physicochemical. Conditions: cells not marked (FESSIF).
Data set [4] can be described thus: Plasma protein binding assay, mouse plasma (mPPB). The conditions noted are these: 5 μM, equilibrium dialysis 4 hours 37° C. The class given is in vitro ADME. The protocol: (§5) Plasma Protein Binding Assay The plasma protein binding was determined by the equilibrium dialysis method. A known concentration of compound (5 μM) in previously frozen human or mouse plasma (Sera Labs) was dialysed against phosphate buffer using a RED device (Life Technologies) for 4 hours at 37° C. The concentration of compound in the protein containing (PC) and protein free (PF) sides of the dialysis membrane were determined by LC-MS/MS and the % free compound was determined by equation 4. Data analysis was performed using Excel (Microsoft, USA). % free=(1−((PC−PF)/PC))×100 (4) hPPB (human plasma protein binding) and mPPB (mouse plasma protein binding) results are described in Tables 1-2.
For orientation: Equilibrium dialysis compares concentrations on both sides of a semipermeable membrane.

Data set [5] has as its system RAF dimers in HCT-116 cells. Put plainly: HCT-116 AlphaLISA SureFire pERK1/2 cellular assay (dimer). In kind it is cell-based. The conditions noted are these: Homo sapiens, HCT-116; HCT116 cells pre-dosed with 1 μM Encorafenib, 1 hr; read-out: pERK HCT116 dimer (1 hr) pIC50 (converted). The method, then:
as §4
HCT-116 AlphaLISA SureFire pERK1/2 Cellular Assay (Dimer)
The human HCT-116 colorectal carcinoma cell line (ATCC CCL-247) endogenously expresses the KRAS^G13D mutation, which leads to constitutive activation of the MAP kinase pathway and phosphorylation of ERK. First generation RAF inhibitors can promote RAF dimer formation in KRAS mutant tumours leading to a paradoxical activation of the pathway. To determine whether compounds can circumvent this problem and inhibit RAF dimers in HCT-116 cells, they were tested using AlphaLISA® SureFire® technology (Perkin Elmer p-ERK1/2 p-T202/Y204 assay kit ALSU-PERK-A10K). The main procedure is essentially the same as described above, with the following adjustments: Cells were seeded with the seeding density of 30,000 cells per well. On the second day (the day of dosing) no medium change was performed and the cells were dosed with 1 μM of Encorafenib for 1 hour (at 37° C. and 5% CO2) to induce RAF dimers and promote paradoxical dimer-dependent pERK signalling. After incubation, the cells were washed, 100 μl fresh growth medium was added, and cells were dosed with compounds of interest to produce a 10-point dose response, where the top concentration was 10 μM and subsequent concentrations are at 1/2 log dilution intervals. Cells were incubated for another hour at 37° C. and 5% CO2 before lysis and processing with the pERK AlphaLISA® SureFire® kit as described above. […]

A short description of data set [6]: Plasma protein binding assay, human plasma (hPPB). The class given is in vitro ADME. The conditions noted are these: 5 μM, equilibrium dialysis 4 hours 37° C. The protocol: as §5
A short description of data set [7]: Microsomal stability assay, mouse liver microsomes (MLM). The conditions noted are these: 0.5 mg/mL protein, 1 μM substrate. In kind it is in vitro ADME. The protocol: as §1, §2, §3
For orientation: Microsomes from liver hold many membrane-bound enzymes, among them those of drug oxidation.

As to `COc1ccccc1-c1c[nH]c(C2COc3ccc(Oc4ccnc5c4CCC(=O)N5)cc3C2)n1` (centres unmarked) [Compound 1, 5-[3-[4-(2-methoxyphenyl)-1H-imidazol-2-yl]chroman-6-yl]oxy-3,4-dihydro-1H-1,8-naphthyridin-2-one], the microsomal CLint (commonly the capacity of the preparation to metabolise the compound, expressed as a volume cleared per time) at 1 μM amounted to 123 µL/min/mg in data set [1] and 109 µL/min/mg in data set [7]. For the same compound, the IC50 in data set [2] was 28.2 nM; in data set [5], 67.6 nM. Moreover, in data set [3], the Sol is given as below 1.2 mg/L. In data set [4], the “mPPB (% free)” value is given as 0.5 % free. Also, in data set [6], the “hPPB (% free)” value is given as 0.2 % free.

As to `N#Cc1cccc(-c2c[nH]c(C3COc4ccc(Oc5ccnc6c5CCC(=O)N6)cc4C3)n2)c1` (centres unmarked) [Compound 16, 3-[2-[6-[(7-oxo-6,8-dihydro-5H-1,8-naphthyridin-4-yl)oxy]chroman-3-yl]-1H-imidazol-4-yl]benzonitrile], the values for the IC50 in data set [2] and in data set [5] were 575 nM and 617 nM, respectively. For the same compound, the Sol in data set [3] is below 1.2 mg/L.

Consider `O=C1CCc2c(Oc3ccc4c(c3)CC(c3nc5cc(C(F)(F)F)cc(Cl)c5[nH]3)CO4)ccnc2N1` (centres unmarked) [Compound 30], for which the IC50 in data set [2] was 162 nM; in data set [5], 1320 nM. In data set [3], this compound had a Sol below 1.3 mg/L.

As to `CN(C)Cc1cc(C(F)(F)F)c2nc(C3COc4ccc(Oc5ccnc6c5CCC(=O)N6)cc4C3)[nH]c2c1` (centres unmarked) [Compound 34], the results for the microsomal CLint at 1 μM in data set [1] and in data set [7] were 46.9 µL/min/mg and 8.6 µL/min/mg, respectively. Besides, in data set [2], the IC50 is 4470 nM. Also, the Sol in data set [3] is given as 28.7 mg/L. Besides, in data set [4], the “mPPB (% free)” value amounted to 3.2 % free. Further, in data set [6], the “hPPB (% free)” value was found to be 0.7 % free.

With `O=C1CCc2c(Oc3ccc4c(c3)CC(c3cc(-c5ccccc5C(F)(F)F)n[nH]3)CO4)ccnc2N1` (centres unmarked) [Compound 35, 5-[3-[3-[2-(trifluoromethyl)phenyl]-1H-pyrazol-5-yl]chroman-6-yl]oxy-3,4-dihydro-1H-1,8-naphthyridin-2-one], the results for the microsomal CLint at 1 μM in data set [1] and in data set [7] were 277 µL/min/mg and 42.1 µL/min/mg, respectively. Moreover, the IC50 is 2450 nM in data set [2] and 525 nM in data set [5]. This compound also returned a Sol in data set [3] below 1.3 mg/L. In addition, in data set [6], the “hPPB (% free)” value is on record as below 0.1 % free.

Regarding `O=C1CCc2c(Oc3ccc4c(c3)CC(c3cc(-c5ccccc5Cl)n[nH]3)CO4)ccnc2N1` (centres unmarked) [Compound 36], the intrinsic clearance (microsomal CLint) at 1 μM in data set [1] was 23.5 µL/min/mg; in data set [7] it was 18.4 µL/min/mg. For the same compound, the figures for the IC50 in data set [2] and in data set [5] were 525 nM and 174 nM, respectively. In data set [3], this compound displayed a Sol below 1.2 mg/L. The “mPPB (% free)” value in data set [4] is on record as below 0.1 % free.

As for `O=C1CCc2c(Oc3ccc4c(c3)CC(c3cc(-c5cccc(Cl)c5)n[nH]3)CO4)ccnc2N1` (centres unmarked) [Compound 37], the IC50 in data set [2] is 501 nM; in data set [5], 339 nM. In data set [3], the Sol is recorded as below 1.2 mg/L. The microsomal CLint at 1 μM in data set [7] was found to be 18.4 µL/min/mg.

For `O=C1CCc2c(Oc3ccc4c(c3)CC(c3cc(-c5ccc(C(F)(F)F)cc5)n[nH]3)CO4)ccnc2N1` (centres unmarked) [Compound 38], the microsomal CLint at 1 μM in data set [1] was 3 µL/min/mg; in data set [7], 4.3 µL/min/mg. Also, the IC50 in data set [2] is 8510 nM; in data set [5], 3980 nM. Also, in data set [3], the Sol is below 1.3 mg/L.

As to `COc1ccccc1-c1cc(C2COc3ccc(Oc4ccnc5c4CCC(=O)N5)cc3C2)[nH]n1` (centres unmarked) [Compound 40], the results for the IC50 in data set [2] and in data set [5] were 251 nM and 324 nM, respectively. Besides, in data set [3], the Sol was below 1.2 mg/L. The microsomal CLint at 1 μM in data set [7] worked out at 27.1 µL/min/mg.

Regarding `COc1cccc(-c2cc(C3COc4ccc(Oc5ccnc6c5CCC(=O)N6)cc4C3)[nH]n2)c1` (centres unmarked) [Compound 41], the IC50 was 513 nM in data set [2] and 302 nM in data set [5]. Besides, in data set [3], the Sol was below 1.2 mg/L. Besides, the “mPPB (% free)” value in data set [4] was found to be 1.2 % free. In data set [7], the microsomal CLint at 1 μM was 46.1 µL/min/mg.

Take `O=C1CCc2c(Oc3ccc4c(c3)CC(c3cc(-c5cccc(C(F)(F)F)c5)n[nH]3)CO4)ccnc2N1` (centres unmarked) [Compound 42]: the microsomal CLint at 1 μM in data set [1] was 10.6 µL/min/mg; in data set [7], 22 µL/min/mg. Further, the figures for the IC50 in data set [2] and in data set [5] were 891 nM and 741 nM, respectively. Also, the Sol in data set [3] was below 1.3 mg/L. Also, in data set [4], the “mPPB (% free)” value is below 0.1 % free.

For the compound `O=C1CCc2c(Oc3ccc4c(c3)CN(C(=O)Nc3ccccc3)CC4)ccnc2N1` [Compound 46, 7-[(7-oxo-6,8-dihydro-5H-1,8-naphthyridin-4-yl)oxy]-N-phenyl-3,4-dihydro-1H-isoquinoline-2-carboxamide], the microsomal CLint at 1 μM in data set [1] was 18.4 µL/min/mg; in data set [7], 45.5 µL/min/mg. In data set [3], this compound registered a Sol below 1 mg/L. Besides, the “mPPB (% free)” value in data set [4] was determined as 2.3 % free. Also, the “hPPB (% free)” value in data set [6] was found to be 1.9 % free.

With `c1ccc(-c2c[nH]c(C3COc4ccc(OC5CCOCC5)cc4C3)n2)cc1` (centres unmarked) [compound 51], the microsomal CLint at 1 μM in data set [1] stood at 156 µL/min/mg; in data set [7], 123 µL/min/mg. In data set [3], this compound showed a Sol of 1.2 mg/L. Also, the “mPPB (% free)” value in data set [4] came to 2.6 % free. In addition, the “hPPB (% free)” value in data set [6] was found to be 0.5 % free.
